Data as given in ChEMBL document CHEMBL1156829 (Proc Natl Acad Sci U S A, 2008).

Legend:
Plasmodium falciparum [1] = experiment: NOVARTIS: Inhibition of Plasmodium falciparum 3D7 (drug-susceptible) proliferation in erythrocyte-based infection assay; assay type: functional, organism-based; conditions: Plasmodium falciparum, 3D7
Plasmodium falciparum [2] = experiment: NOVARTIS: Inhibition of Plasmodium falciparum W2 (drug-resistant) proliferation in erythrocyte-based infection assay; assay type: functional, organism-based; conditions: Plasmodium falciparum, W2; read-out: EC50
[3] = NOVARTIS: Cytotoxicity against human hepatocellular carcinoma cell line (Huh7); assay type: toxicity, cell-based, Huh-7; conditions: Huh7 cells (hepatocellular carcinoma cell line)

Structure (SMILES)	EC50 (Plasmodium falciparum [1])	EC50 (Plasmodium falciparum [2])	CC50 [3]
CCOC(=O)C1=C(c2ccccc2)N=c2sc(=Cc3ccccc3O)c(=O)n2C1c1c(OC)ccc2ccccc12 (configuration not stated)	2.32 µM	0.271 µM	> 100 µM
c1ccc(C[C@H]2CN(c3ccc4ccccc4c3)CCN2CCNCC2CCCO2)cc1 (some centres not stated)	0.273 µM	0.38 µM	2.54 µM
CCCCCCN(C(=O)Nc1cccc(C#N)c1)C(CC)c1nc2ccccc2c(=O)n1CCC(=O)OC (configuration not stated)	0.979 µM	1.07 µM	> 10 µM
CCN(CC)CCCNCC(=O)N1c2ccccc2Sc2ccccc21	> 12.5 µM	1.25 µM	> 100 µM
C=C[C@H]1CN2CC[C@H]1C[C@@H]2[C@@H](OC(=O)c1ccco1)c1ccnc2ccccc12	0.149 µM	0.104 µM	> 10 µM
Cc1nc2ccc(Cl)cc2c(O)c1I	3.47 µM	0.714 µM	> 100 µM
COC(=O)C1=C(C)NC2=C(C(=O)CC(c3ccccc3)C2)C1c1ccc(Cl)cc1 (configuration not stated)	1.22 µM	0.333 µM	> 100 µM
CCOC(=O)c1ccc(NC(=O)CSc2nc(NCc3ccccc3)c3ccccc3n2)cc1	> 1.14 µM	> 0.836 µM	> 10 µM
CC1=C(C(=O)OC2CCCCC2)C(c2ccc(F)c(F)c2)C2=C(CCCC2=O)N1 (configuration not stated)	6.23 µM	2.73 µM	> 100 µM
CC(=O)Nc1nc(C)c(-c2csc(Nc3ccc(Cl)cc3)n2)s1	0.14 µM	0.0978 µM	34.4 µM
CCOC(=O)C1=C(C)N/C(=C\c2cc(C)n(-c3ccc(C)cc3C)c2C)C1=O	> 1.25 µM	1.74 µM	> 10 µM
Fc1cccc2sc(Nc3nc(-c4ccccn4)cs3)nc12	0.321 µM	0.0958 µM	24.7 µM
Cc1ccn2c(NC(C)(C)CC(C)(C)C)c(-c3ccccc3OC(=O)C3CCCC3)nc2c1	1.01 µM	< 0.00829 µM	> 10 µM
c1csc(CN2CCc3nc(N4CCCCC4)sc3C2)c1	1.26 µM	0.446 µM	> 10 µM
O=C(CSc1nnc2c(n1)[nH]c1ccccc12)Nc1ccc([N+](=O)[O-])cc1	9.11 µM	> 12.5 µM	> 100 µM
CN(C)c1ccc(/C=C2\SC(=Nc3ccc(O)cc3)NC2=O)cc1	1.14 µM	0.526 µM	8.59 µM
CCc1cccc(NC(=S)N2CCCC2c2ccccc2C(F)(F)F)c1 (configuration not stated)	0.408 µM	0.17 µM	> 10 µM

Structure (SMILES)	EC50 (Plasmodium falciparum [1])	EC50 (Plasmodium falciparum [2])	CC50 [3]
C=C(C)[C@@]12O[C@@H]1[C@@]1(C)C(=CC2=O)CC[C@@H](O)[C@@H]1C	0.787 µM	0.586 µM	> 10 µM
O=C(Nc1ccc(Oc2ccc(OC(F)(F)F)cc2)cc1)C1CC1	1.67 µM	2.77 µM	> 100 µM
CC(C)Cc1nc(N2CCOCC2)c2nnn(Cc3ccccc3)c2n1	3.03 µM	1.65 µM	> 100 µM
CCN(CC)c1ccc2c(c1)OC(N)=C(C#N)C2c1ccsc1 (configuration not stated)	> 9.54 µM	> 12.5 µM	> 100 µM
COc1ccc(Cl)cc1NC(=S)NNC(=O)c1cccnc1	0.536 µM	0.664 µM	> 100 µM
O=C(CCC1CCCC1)NC1CCC(Nc2ccnc3cc(Cl)ccc23)CC1 (configuration not stated)	1.01 µM	0.875 µM	> 3.89 µM
CN(C)CCNC(=O)c1ccc(-c2cccc3c2sc2ccccc23)nc1N1CCN(CCO)CC1	0.388 µM	0.452 µM	5.32 µM
Cc1sc2c(c1C)CN(Cc1ccco1)CN2C(=O)c1ccco1	> 12.5 µM	> 6.91 µM	> 100 µM
CCOC(=O)C1=C(C)NC2=C(C(=O)C(C(=O)OCC)C(c3cccc(OC)c3)C2)C1c1ccc(Br)cc1 (configuration not stated)	2.17 µM	0.671 µM	> 100 µM
COC(=O)c1ccc2c(=O)n(Cc3ccc4c(c3)OCO4)c(SCC(=O)n3nc(C)cc3N)nc2c1	0.144 µM	0.0412 µM	> 10 µM
c1ccc(CNc2nc(Nc3ccccc3)nc3ccccc23)cc1	0.158 µM	0.0934 µM	13.5 µM
Cc1nc(-c2nc3c(s2)CN(C(=O)c2ccncc2)CC3)cs1	0.163 µM	0.144 µM	> 10 µM
Cc1ccc(NC(=O)N(CCCN(C)C)Cc2cc3cc4c(cc3[nH]c2=O)OCO4)cc1	1.29 µM	0.236 µM	> 100 µM
CC(=O)N1c2ccccc2NC2=C(C(=O)CCC2)C1c1ccc([N+](=O)[O-])cc1 (configuration not stated)	> 1.25 µM	0.0267 µM	> 10 µM
CN(C)CCn1cnc2sc3c(c2c1=O)CCC(NCc1cccc(Cl)c1)C3 (configuration not stated)	0.748 µM	0.479 µM	18.9 µM
O=C(Nc1ccccc1Cl)C1CCCN1C(=O)OCc1ccccc1 (configuration not stated)	> 1.25 µM	> 0.929 µM	> 10 µM
COc1ccc(C2CC(=O)C3=C(C2)NC(C)=C(C(=O)OC2CCCC2)C3c2cccc(Cl)c2)cc1OC (configuration not stated)	0.201 µM	0.0758 µM	16.9 µM
